Experimental data as given in patent publication US20220281902A1, “MIT[…] IMPROVE METABOLIC SYNDROME DURING AGING” (The Board of Trustees of the Leland Stanford Junior …, priority 2019, published 2022).
Marks after values point to notes of the source that are not given here.

Tests used:
[1] = Intra-peritoneal glucose tolerance test (IPGTT); assay type: in vivo, C57BL/6 mice
Source text: The C57BL/6 mice were maintained on a standard purified mouse diet (PicoLab 5053 Rodent Diet 20; Lab Diets) until they reached 2 months of age when the treatments started. The CR animals were subjected to a lifelong restriction on PicoLab 5053 Rodent Diet 20; Lab Diets, starting at 12 weeks of age, with a daily food allotment of 60% of that eaten by the ad lib animals. Besides CR animals, the C57BL/6 groups in this study were fed the standard high fat diet (HFD; 60 or 40% fat). Body weights were measured weekly at the same time each week. Food and water intake were measured once every month for 3-6 consecutive days at the same time each month. Water consumption was measured for 2 weeks prior to the start of administration. Compound was generated and modified for better permeability in to mitochondria, evaluated by HPLC, was 96%-97%. The administration began at 8 weeks of age and continued for 16 months, until they became 18-month-old. The drug solution was prepared weekly in small batches by dissolving the compound into autoclaved water at the respective doses and filtering sterilely. Aliquots were collected from each batch and measured by HPLC to confirm stability of the compound. Water bottles and cages were changed twice weekly. […] Rectal body temperature was measured monthly, as described previously. Whole blood samples, and histopathology were analyzed after 14 months of treatment. […]

[2] = system: PGC-1α, NRF1, SIRT1, Atg5, PINK1, Parkin transcripts; assay: qPCR of mitochondriogenesis transcripts and mitophagy markers; assay type: in vivo, mouse
Procedure: Gene expression & RT qPCR Analyses. Total RNA was isolated using a commercially available kit (OMEGA bio-tek, R6812-02) according to the manufacturer's instructions. cDNA was generated using the PrimeScript RT reagent kit (TAKARA, RR047A). Gene expression were determined by qPCR as described in the product manual. The analysis was evaluated by Bio-Rad Real-Time System (CFX Connect™).
RNAs from 10 mice (5 treated and 5 Ctrl.) VF fat or livers were isolated by using omega Bio-Tek reagents, and cDNA was transcribed by (TAKARA). qPCR was then performed by using iQ SYBR Green mastermix bioscience on a CFX96 Real-Time System/C1000 Thermal Cycler (Bio-Rad).

[3] = Chronic 10-week treatment of T2DM mice; assay type: in vivo
Procedure: Next, in a biased investigation on impact of partial inhibition as a potential anti-diabetic treatment, two groups of type 2 diabetes mellitus (T2DM) and healthy control mice were prepared. Four weeks after the verification of T2DM, diabetic mice began to receive the exemplary subject compound. The chronic treatment phase lasted for 10 weeks.

[4] = system: reactive oxygen species (ROS); assay: Serum ROS generation evaluation; assay type: in vivo, mouse; conditions: blood plasma, after 14 months of treatment
[5] = Single IP injection, body temperature and clinical pathology; assay type: in vivo, C57BL/6 mice; conditions: Day 4
Procedure: Body temperature integration in mouse. Three groups of male C57BL/6 mice received a single injection of the inhibitor at dose-levels of 0 (vehicle=N/S), average μM and max μM and were then kept for an 80 minute observation period until the BT was stabilized. Treatment was performed as a slow injection, IP, under a dosage volume of 0.5 mL/kg.
Rectal temperature was measured using a conventional thermometer in all groups at 0, 10, 15, 20, 30, 40, 50, 60, 70 and 80 minutes and repeated three times in 3 days.

[6] = Body weight variations on high fat diet (HFD, 60% fat); assay type: in vivo, C57BL/6 mice; conditions: for body weight gain on HFD: after 8 weeks HFD; for BW contrast of treated vs control: end of 8-week HFD
Procedure: Animal experimentation. Male C57BL/6 mice (Shanghai SLAC Laboratory animal Co. Ltd) were group-housed in a barrier facility with 12-hr light/12-hr dark cycles. All mice received a regular chow diet ad libitum (PicoLab 5053 Rodent Diet 20; Lab Diets) except for HFD (40-60%) and CR models. The compound was then administered in drinking water ad libitum at either 90-100 or 100-120 mg/kg/day, based on the previously measured water consumption.
(§1) The C57BL/6 mice were maintained on a standard purified mouse diet (PicoLab 5053 Rodent Diet 20; Lab Diets) until they reached 2 months of age when the treatments started. The CR animals were subjected to a lifelong restriction on PicoLab 5053 Rodent Diet 20; Lab Diets, starting at 12 weeks of age, with a daily food allotment of 60% of that eaten by the ad lib animals. Besides CR animals, the C57BL/6 groups in this study were fed the standard high fat diet (HFD; 60 or 40% fat). Body weights were measured weekly at the same time each week. Food and water intake were measured once every month for 3-6 consecutive days at the same time each month. Water consumption was measured for 2 weeks prior to the start of administration. Compound was generated and modified for better permeability in to mitochondria, evaluated by HPLC, was 96%-97%. The administration began at 8 weeks of age and continued for 16 months, until they became 18-month-old. The drug solution was prepared weekly in small batches by dissolving the compound into autoclaved water at the respective doses and filtering sterilely. Aliquots were collected from each batch and measured by HPLC to confirm stability of the compound. Water bottles and cages were changed twice weekly. Fed and fasted blood samples were collected monthly at the same time each month from tail and used for glucose, insulin, blood cell counts, lipid analysis using assay kits (Robio, China) and HbA1C assay kit (Crystal chem, USA) following the manufacturer protocol. IPGTTs and ITTs were conducted throughout morning and early afternoon after fasting for 16-18 hrs. and 4 hrs., respectively, once before start of treatment administration began and every 3 months thereafter. Rectal body temperature was measured monthly, as described previously. Whole blood samples, and histopathology were analyzed after 14 months of treatment. Tissue samples were collected after 10-14 months from mice, sacrificed and used for WB and qPCR microarray, and other analyses. All animal studies were approved by the Shanghai Jiao Tong University Animal Studies Committee and were in accordance with NIH guidelines. (Number of mice; SD=30, HFD=10, CR=20).

[7] = biological target: T1, cytochrome c oxidase (CcO) (Mus musculus, UniProt P00397); assay: CcO activity in liver mitochondria of treated mice; assay type: in vivo
T1 construct: Mouse livers were extracted, and liver mitochondria were obtained using a mitochondria isolation kit; from tissue; host or cells: liver mitochondria of treated and control C57BL/6 mice, isolated with a Sigma-Aldrich mitochondria isolation kit; activity kit Sigma-Aldrich CYTOCOX1
Procedure: Measurement of CcO activity in liver mitochondria. Mouse livers were extracted, and liver mitochondria were obtained using a mitochondria isolation kit (Sigma-Aldrich). CcO activity in liver mitochondria was measured using a cytochrome c oxidase assay kit (Sigma-Aldrich, CYTOCOX1, USA.

[8] = Serum biomarkers in treated mice; assay type: in vivo, C57BL/6 mice; conditions: 100 mg/Kg per day
Source text: as §1

ATP production = assay: ATP level in liver of treated mice; assay type: in vivo, mouse
Source text: Measurement of ATP level in liver. For measuring ATP, cellular ATP in livers was extracted using an ATP extraction kit of an ATP assay kit (Sigma-Aldrich, MAKI 90). The ATP level was quantitatively measured by the absorbance at 570 nm (A570).

[9] = liver, 12- and 16-month chronic treatment

Structure (SMILES): Cc1ncsc1CCOC(=O)C[P+](c1ccccc1)(c1ccccc1)c1ccccc1.[Br-] [HG1a-1, (2-(2-(4-Methylthiazol-5-yl)Ethoxy)-2-Oxoethyl) Triphenylphosphonium Bromide]
- glucose tolerance (IPGTT) ([1]; after 6 months): normal glucose tolerance
- glucose tolerance (IPGTT) ([1]; young ages of 8 weeks and 12 weeks): mildly glucose-intolerant
- Atg5 transcript level ([2]; adipose tissue): enhancement
- Atg5 transcript level [2, 9]: noticeable upgrade
- PINK1 transcript level [2, 9]: noticeable upgrade
- Parkin transcript level [2, 9]: noticeable upgrade
- SIRT1 transcript level ([2]; liver, longer course of treatment): significant enhancement
- NRF1 transcript level ([2]; livers of aged mice): increased notably
- PGC-1α transcript level ([2]; livers of aged mice): increased notably
- drop of blood glucose level ([3]; after one week (23 mM at time 0)): 20%
- drop of blood glucose level ([3]; by week 3, reached healthy controls): 39%
- insulin elevations ([3]; week 3): negligible
- drop of ROS production [4]: ~4 fold
- clinical pathology (physicals) 24 h after treatment [5]: within the normal baseline range
- BW gain on HFD ([6]; 14 month old mice already treated for 12 months, 8 week HFD): resisted the BW gain with HFD until 5 weeks
- body weight gain on HFD ([6]; aged group (12 month old)): 12%
- BW contrast of treated vs control ([6]; aged group): 13%
- body weight gain on HFD ([6]; younger group (12 week old)): 18%
- BW contrast of treated vs control ([6]; younger group): 2-4%
- CcO inhibition activity ([7]; 2 month old mice): 67%
- CcO function higher than controls of the same model ([7]; 12-month-long treated mice): about 20%
- CcO function vs same age subjects receiving a single dose ([7]; 12-month-long treated mice): one-fold greater
- CcO inhibition activity ([7]; 14 month old mice): 65%
- glycated hemoglobin (Hb1Ac) levels vs control and calorie restriction ([8]; 12 months continuous treatment): lower
- Cholesterol ([8]; serum, treated mice): 6.3 ± 0.9 mM/L
- Glucose-fasted ([8]; serum, treated mice): 4.4 ± 0.2 mM
- Glucose-fed ([8]; serum, treated mice): 6.5 ± 0.3 mM
- Insulin ([8]; serum, treated mice): 2.34 ± 0.5 µg/L
- Total protein ([8]; serum, treated mice): 5.89 ± 0.32 g dl^□−1
- Triglycerides ([8]; serum, treated mice): 1.00 ± 1*^ mM/L
- % HbA1c ([8]; treated mice): 5.5 ± 0.5 %
- decrease of ATP level in liver compared to controls (ATP production; 6 months): 50%
- decrease of ATP level in liver compared to controls (ATP production; long term treated mice): 25%
